57 molecules from US20250011881A1, “MYC-HSF1 DUAL AMPLIFICATION AS A BIOMARKER FOR CANCER TREATMENT” (The Trustees of Indiana University, priority 2023, published 2025) can be followed below.

Counter-ions that a name gives are not always drawn.

The test system of the first assay is ovarian cancer cells with (OVCAR8, OVCAR4) or without (OVSAHO, CAOV3) MYC-HSF1 amplification. The experiment in a line: Epigenetic inhibitor drug screen, cell viability (Cell Titer Blue). The assay is classed as cell-based.
Conditions: not given
On the technique in general: Resazurin is reduced to fluorescent resorufin, in cell work by metabolically active cells.
With `CCCC(=O)[O-].[Na+]` [Sodium butyrate], the “Non Amp - AMP (POC) 10 uM” value was −0.4466 POC.
The same measure, in the same setting: in the case of “(−)-Epigallocatechin gallate [(−)-Epigallocatechin gallate (EGCG)]” it was 4.98 POC.
Still for that read-out and setting: to Ginkgolide C belongs −1.319 POC.

Staying with this assay, now noted: 10 µM.
For `COc1cc2c(NC3CCN(C(C)C)CC3)nc(N3CCC(F)(F)CC3)nc2cc1OCCCN1CCCC1` [UNC 0642], the “Non Amp - AMP (POC) 10 uM” value came to 6.253 POC.

Staying with this assay, now noted: 10 uM, 48 hrs; average relative cell viability (vs 1% DMSO) of non-amplified cells (OVSAHO, CAOV3) minus that of MYC-HSF1 amplified cells (OVCAR8, OVCAR4); positive = greater response in amplified cells.
Take `O=C([O-])CCCc1ccccc1.[Na+]` [Sodium 4-phenylbutyrate]: the “Non Amp - AMP (POC) 10 uM” value was 6.103 POC.
Still for that read-out and setting: to `CN1CCN(c2nc(C3=C(c4c[nH]c5ccccc45)C(=O)NC3=O)c3ccccc3n2)CC1` [Sotrastaurin (AEB071), Sotrastaurin] belongs 10.63 POC; to `CN[C@@H]1C[C@H]2O[C@@](C)([C@@H]1OC)n1c3ccccc3c3c4c(c5c6ccccc6n2c5c31)C(=O)NC4` [Staurosporine], 7.23 POC; to `N#Cc1c(Oc2ccc(F)c(NC(=O)Cc3cccc(C(F)(F)F)c3)c2)ccc2nc(NC(=O)C3CC3)sc12` [TAK-632], −12.18 POC.
The same measure, in the same setting: in the case of `CCS(=O)(=O)c1cccc(-c2cc(C(=O)NC3CCN(C)CC3)c(C)c3[nH]c4ncc(C)cc4c23)c1` [TAK-901] it was 3.351 POC.
On the same count and under the same terms, to `O=C(CCl)Nc1ccc(S(=O)(=O)c2ccc(NC(=O)CCl)cc2)cc1` [TC-E 5003] belongs 0.7453 POC; to `Cc1ccc(NC(=O)CCCCCC(=O)Nc2ccccc2N)cc1` [TC-H 106], 8.223 POC.
With `N#Cc1c(-c2ccccc2)cc(-c2cc(Br)ccc2O)[nH]c1=O` [TCS PIM-1 1], the “Non Amp - AMP (POC) 10 uM” value was found to be 0.7424 POC.
On to `Cc1cnc(Nc2ccc(N3CCN(C)CC3)cc2)nc1Nc1cccc(S(=O)(=O)NC(C)(C)C)c1` [TG101209], for which the “Non Amp - AMP (POC) 10 uM” value turned out to be 15.1 POC.
Same read-out and setting: in the case of `Cc1cnc(Nc2ccc(OCCN3CCCC3)cc2)nc1Nc1cccc(S(=O)(=O)NC(C)(C)C)c1` [TG101348 (SAR302503)] it was −1.346 POC.
The same measure, in the same setting: to `O=C(NCC1(c2nc(-c3ccccc3)cs2)CCOCC1)c1cccc(-c2noc(C(F)(F)F)n2)c1` [TMP269] belongs 16.29 POC; to `CC(C)(CNC(=O)c1cccc(-c2noc(C(F)(F)F)n2)c1)c1coc(-c2ccccc2)n1` [TMP-195], 0.5425 POC; to `N#Cc1ccc(OC2CCC(NC(=O)CCSc3nc4ccccc4c(=O)[nH]3)CC2)cc1` (centres unmarked) [Tankyrase Inhibitors (TNKS) 49], −7.406 POC.
The same measure, in the same setting: to `CN(C)CCCCC(=O)Nc1ccc(NC(=S)NC(=O)c2ccc(C(C)(C)C)cc2)cc1.Cl` [Tenovin-6 (hydrochloride), Tenovin-6] belongs −3.503 POC.
As to `CN(C)CCCCC(=O)Nc1ccc(NC(=S)NC(=O)c2ccc(C(C)(C)C)cc2)cc1` [Tenovin-6], the “Non Amp - AMP (POC) 10 uM” value is reported as 0.07933 POC.
Still for that read-out and setting: in the case of `CCCCCCCCCCCCCC(=S)NCCCC[C@H](NC(=O)OCc1ccccc1)C(=O)Nc1ccccc1` [Thiomyristoyl] it was −0.8381 POC; in that of `CCOC(=O)NNc1nncc2ccccc12` [Todralazine (hydrochloride), Todralazine], 13.07 POC; in that of `O=C(CCCCCCC(=O)Nc1ccc([C@H]2O[C@@H](CSc3nc(-c4ccccc4)c(-c4ccccc4)o3)C[C@@H](c3ccc(CO)cc3)O2)cc1)NO` [Tubacin], −15.59 POC.
Same read-out and setting: to `CN1CCc2c(c3ccccc3n2Cc2ccc(C(=O)NO)cc2)C1.Cl` [Tubastatin A HCl] belongs 19.35 POC; to `CN1CCc2c(c3ccccc3n2Cc2ccc(C(=O)NO)cc2)C1` [Tubastatin A], 15.75 POC; to `Cc1noc(C)c1-c1ccc(-c2nc3cnccn3c2NC(C)(C)C)cc1` [UMB-32], −3.692 POC.
On to `COc1cc2c(NC3CCN(C)CC3)nc(N3CCCN(C)CC3)nc2cc1OCCOCCN(C)C` [UNC0321 (trifluoroacetate salt)], for which the “Non Amp - AMP (POC) 10 uM” value is listed as 0.4275 POC.
For the molecule `COc1cc2nc(N3CCCC3)nc(NCCCCCN3CCCC3)c2cc1OC` [UNC0379], the “Non Amp - AMP (POC) 10 uM” value was 21.92 POC.
In the case of `COc1cc2c(NC3CCN(C(C)C)CC3)nc(C3CCCCC3)nc2cc1OCCCN1CCCC1` [UNC0638], the “Non Amp - AMP (POC) 10 uM” value was −12.13 POC.
Take `COc1cc2c(NC3CCN(CC4CCCCC4)CC3)nc(N3CCCN(C(C)C)CC3)nc2cc1OCCCN1CCCCC1` [UNC 0631]: the “Non Amp - AMP (POC) 10 uM” value is on record as 34.73 POC.
The same measure, in the same setting: to `COc1cc2c(NC3CCN(C4CCCCC4)CC3)nc(N3CCCN(C(C)C)CC3)nc2cc1OCCCN1CCCCC1` [UNC 0646] belongs 45.25 POC; to `O=C(COc1cccc2c(=O)[nH]ccc12)c1ccccc1` [UPF 1069], −6.052 POC.
Same read-out and setting: in the case of `Cc1cc(Nc2cc(N3CCN(C)CC3)nc(Sc3ccc(NC(=O)C4CC4)cc3)n2)[nH]n1` [VX-680 (MK-0457, Tozasertib), Tozasertib] it was −20.25 POC; in that of `CCCC(CCC)C(=O)[O-].[Na+]` [Valproic acid sodium salt], −19.36 POC; in that of `COC(=O)c1ccc(N2CCN(C)CC2)c(NC(=O)c2cccc(OC)c2)c1` [WDR5 0103], 1.921 POC.
On the same count and under the same terms, to `COc1cc2ncnc(Nc3ccc(O)c(Br)c3)c2cc1OC` [WHI-P154] belongs −1.78 POC; to `COc1ccc(-n2c(SCCCN3C(=O)c4cccc5cccc(c45)C3=O)nnc2-c2ccncc2)cc1` [WIKI4], 10.07 POC.
For `C[C@H](NC(=O)/C(C#N)=C/c1cccc(Br)n1)c1ccccc1` [WP1066], the “Non Amp - AMP (POC) 10 uM” value came out at 3.079 POC.
Same read-out and setting: to `CCC(=O)Nc1cccc(Oc2nc(Nc3ccc(N4CCN(C)CC4)cc3OC)ncc2Cl)c1` [WZ4003] belongs −24.51 POC; to `Oc1nc(-c2ccc(C(F)(F)F)cc2)nc2c1CSCC2` [XAV-939], −6.034 POC; to `O=C(Nc1ccc(-c2ccnc(Nc3ccc(N4CCOCC4)cc3)n2)cc1)C1CCCN1` (centres unmarked) [XL019], −14.18 POC.
The same measure, in the same setting: to `CC(C)c1cc(CNc2nc(Nc3cc(C4CC4)[nH]n3)cc(N3CCN(C)CC3)n2)on1` [XL228] belongs 17.3 POC; to `CC(C)N(CCC(=O)c1ccc2ccccc2c1)Cc1ccccc1` [ZM 39923 HCl], −4.611 POC.
Still for that read-out and setting: in the case of `COc1cc2c(Nc3ccc(NC(=O)c4ccccc4)cc3)ncnc2cc1OCCCN1CCOCC1` [ZM 447439] it was 0.5089 POC; in that of `C=CC(=O)c1ccc2ccccc2c1` [ZM 449829], 4.711 POC.
As for `O=C([O-])CCC(O)C(=O)[O-].[Na+].[Na+]` (centres unmarked) [a-hydroxyglutaric Acid (sodium salt), a-hydroxyglutaric Acid], the “Non Amp - AMP (POC) 10 uM” value was found to be 3.785 POC.
On the same count and under the same terms, to `O=P(O)(O)OC(CO)CO` [β-Glycerophosphate (sodium salt hydrate), β-Glycerophosphate] belongs 2.069 POC.
On the same count and under the same terms, in the case of AZD1152 it was −6.485 POC; in that of CPI-455, −8.682 POC.

The assay is the same for the next values; noted with them: 10 uM, 48 hrs; average relative cell viability (vs 1% DMSO) of non-amplified cells (OVSAHO, CAOV3) minus that of MYC-HSF1 amplified cells (OVCAR8, OVCAR4); positive = greater response in amplified cells; 10 µM.
Consider `Nc1nc2nc[nH]c2c(=S)[nH]1` [Thioguanine], for which the “Non Amp - AMP (POC) 10 uM” value is on record as 9.104 POC.
The same measure, in the same setting: in the case of `C[C@@H]1CCN(C(=O)CC#N)C[C@@H]1N(C)c1ncnc2[nH]ccc12` [Tofacitinib (CP-690550) Citrate, Tofacitinib] it was 3.666 POC; in that of `C[C@@H]1CCN(C(=O)CC#N)C[C@@H]1N(C)c1ncnc2[nH]ccc12` [Tofacitinib (CP-690550, Tasocitinib), Tofacitinib], −2.781 POC.
For the molecule `CC(/C=C/C(=O)NO)=C\[C@@H](C)C(=O)c1ccc(N(C)C)cc1` [Trichostatin A], the “Non Amp - AMP (POC) 10 uM” value was 47.34 POC.
Still for that read-out and setting: to `CCCCNNC(=O)c1ccc(Br)cc1` [UF010] belongs 54.18 POC; to `COc1cc2c(NC3CCN(C)CC3)nc(N3CCCN(C)CC3)nc2cc1OCCCN(C)C` [UNC0224], 7.132 POC; to `CCCC(CCC)C(=O)O` [Valproic acid], −3.268 POC.
Still for that read-out and setting: to `O=C(CCCCCCC(=O)Nc1ccccc1)NO` [Vorinostat (SAHA, MK0683), Vorinostat] belongs 37.32 POC.

Staying with this assay, now noted: 10 uM, 48 hrs; average relative cell viability (vs 1% DMSO) of non-amplified cells (OVSAHO, CAOV3) minus that of MYC-HSF1 amplified cells (OVCAR8, OVCAR4); positive = greater response in amplified cells; dihydrochloride, 10 µM.
Turning to `C[C@]1(c2nc3c(C(N)=O)cccc3[nH]2)CCCN1` [Veliparib dihydrochloride], the “Non Amp - AMP (POC) 10 uM” value is −2.841 POC.

Still in this assay, the particulars now being: 10 uM, 48 hrs; average relative cell viability (vs 1% DMSO) of non-amplified cells (OVSAHO, CAOV3) minus that of MYC-HSF1 amplified cells (OVCAR8, OVCAR4); positive = greater response in amplified cells; listed as SAHA, 10 µM.
On to `O=C(CCCCCCC(=O)Nc1ccccc1)NO` [Vorinostat (SAHA, MK0683), Vorinostat], for which the “Non Amp - AMP (POC) 10 uM” value was determined as 44.79 POC.

The same assay, now with this note: 10 uM, 48 hrs; average relative cell viability (vs 1% DMSO) of non-amplified cells (OVSAHO, CAOV3) minus that of MYC-HSF1 amplified cells (OVCAR8, OVCAR4); positive = greater response in amplified cells; listed as Trichostatin A (TSA), 10 µM.
Turning to `CC(/C=C/C(=O)NO)=C\[C@@H](C)C(=O)c1ccc(N(C)C)cc1` [Trichostatin A], the “Non Amp - AMP (POC) 10 uM” value is given as 28.28 POC.

Staying with this assay, now noted: 10 uM, 48 hrs; average relative cell viability (vs 1% DMSO) of non-amplified cells (OVSAHO, CAOV3) minus that of MYC-HSF1 amplified cells (OVCAR8, OVCAR4); positive = greater response in amplified cells; listed as UF 010, 10 µM.
`CCCCNNC(=O)c1ccc(Br)cc1` [UF010]: the “Non Amp - AMP (POC) 10 uM” value is on record as 21.86 POC.

The assay is the same for the next values; noted with them: 10 uM, 48 hrs; average relative cell viability (vs 1% DMSO) of non-amplified cells (OVSAHO, CAOV3) minus that of MYC-HSF1 amplified cells (OVCAR8, OVCAR4); positive = greater response in amplified cells; listed as UNC 0224, 10 µM.
Regarding `COc1cc2c(NC3CCN(C)CC3)nc(N3CCCN(C)CC3)nc2cc1OCCCN(C)C` [UNC0224], the “Non Amp - AMP (POC) 10 uM” value was −1.296 POC.

Staying with this assay, now noted: listed as UNC0642, 10 µM.
As to `COc1cc2c(NC3CCN(C(C)C)CC3)nc(N3CCC(F)(F)CC3)nc2cc1OCCCN1CCCC1` [UNC 0642], the “Non Amp - AMP (POC) 10 uM” value was −5.587 POC.
